The experiment deals with Programmed cell death protein 1/Programmed cell death 1 ligand 1 (Homo sapiens, UniProt Q15116+Q9NZQ7). The experiment can be described thus: In Vitro Activity Assay: In vitro activity evaluation: Cisbio PD-1/PD-L1 binding assay kit was applied for the detection method of in vitro enzymology level.Screening Principles and Methods of PD-1/PD-L1 Small Molecule Inhibitors1) Principle: PD-1 protein is with HIS tag, and PD-1 ligand PD-L1 is with hFc tag. Eu labeled anti-hFc antibody and XL665 labeled anti-HIS antibody are combined with the above two label proteins respectively. After laser excitation, energy can be transferred from donor Eu to receptor XL665, allowing XL665 to glow. […] Reagents should be dispensed in the following order. For 384-well white ELISA plate, 2 μl of diluent or target compound diluted with diluent was added to each well, and then 4 μl of PD-1 protein and 4 μl of PD-L1 protein were added per well, incubated for 15 min at room temperature; and 10 μl of a mixture of anti-Tag1-Eu3+ and anti-Tag2-XL665 was added per well and incubated for 1 h to 4 h at room temperature and the fluorescence signals at 665 nm and 620 nm were measured with an Envison instrument. HTRF rate=(665 nm/620 nm)*104. 8-10 concentrations were detected for each compound and IC50 was calculated by Graphpad software. Format: protein-complex assay.
Sequence of Programmed cell death protein 1/Programmed cell death 1 ligand 1 (Q15116 whole entry): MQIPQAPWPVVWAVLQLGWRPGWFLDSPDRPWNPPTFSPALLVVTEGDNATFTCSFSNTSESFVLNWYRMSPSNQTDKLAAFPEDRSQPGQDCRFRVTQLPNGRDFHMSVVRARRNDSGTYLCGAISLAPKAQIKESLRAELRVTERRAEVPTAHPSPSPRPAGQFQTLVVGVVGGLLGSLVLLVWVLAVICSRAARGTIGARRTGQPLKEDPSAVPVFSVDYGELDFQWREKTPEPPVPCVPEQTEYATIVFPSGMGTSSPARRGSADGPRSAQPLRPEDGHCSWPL
Sequence of Programmed cell death protein 1/Programmed cell death 1 ligand 1 (Q9NZQ7 whole entry): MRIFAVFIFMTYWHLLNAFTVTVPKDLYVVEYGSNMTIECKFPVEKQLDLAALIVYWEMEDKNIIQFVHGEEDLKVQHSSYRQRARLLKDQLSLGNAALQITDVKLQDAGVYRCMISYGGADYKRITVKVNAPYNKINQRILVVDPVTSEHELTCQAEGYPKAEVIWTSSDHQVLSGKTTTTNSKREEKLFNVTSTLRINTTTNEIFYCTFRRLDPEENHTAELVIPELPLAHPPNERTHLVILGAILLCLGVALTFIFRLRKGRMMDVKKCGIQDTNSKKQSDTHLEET
`C[C@H](NCc1cc(Cl)c(OCc2cccc(-c3ccccc3)c2Br)cc1OCc1cccnc1)C(=O)O`: the IC50 was 5.29 nM.
In the case of `O=C(O)[C@H](CO)NCc1cc(Cl)c(OCc2cccc(-c3ccccc3)c2Cl)cc1OCc1cccnc1` it was 40.1 nM; in that of `NC(=O)C[C@H](NCc1cc(Cl)c(OCc2cccc(-c3ccccc3)c2Br)cc1OCc1cccnc1)C(=O)O`, 835 nM; in that of `OCCNCc1cc(Cl)c(OCc2cccc(-c3ccccc3)c2Br)cc1OCc1cccnc1`, 53.8 nM.
Take `O=C(O)[C@H](CO)NCc1cc(Cl)c(OCc2cccc(-c3ccccc3)c2)cc1OCc1cccnc1`: the IC50 is 318 nM.
The figure for `OCCN(CCO)Cc1cc(Cl)c(OCc2cccc(-c3ccccc3)c2Br)cc1OCc1cccnc1` is 51 nM; for `C/C(=C\C(=O)O)NCc1cc(Cl)c(OCc2cccc(-c3ccccc3)c2Br)cc1OCc1cccnc1` it is 2.33 nM; for `O=S(=O)(O)CCNCc1cc(Cl)c(OCc2cccc(-c3ccccc3)c2Br)cc1OCc1cccnc1` it is 16200 nM.
With `O=C(O)[C@H](CO)NCc1cc(Cl)c(OCc2cccc(-c3ccccc3)c2F)cc1OCc1cccnc1`, the IC50 is 134 nM.

One may read the IC50 as the concentration needed to halve the response being measured.
